What was measured:
NCI-H460 cells [1] = assay: CCK-8 cell proliferation assay, NCI-H460; assay type: cell-based; conditions: Homo sapiens
Method: (1) Cells in the logarithmic growth phase were taken and digested to make a cell suspension. 20 μl of the cell suspension was taken with a pipette, and added to a CountStar disposable cell counting plate for cell counting, and the counting results were recorded. The cell concentration was adjusted to 30,000 to 40,000 cells/ml (note: different cells have different growth rates, so the number of cells in each well was slightly different).
(2) A 96-well plate was taken. Since the wells in the outermost circle of the culture plate were easy to evaporate and dry, causing inaccurate volumes, and increasing errors, 100 μl of PBS was added to the wells in the outermost circle, which were not used as assay wells.
(3) The adjusted cell suspension was added to the 96-well plate, with 100 μl in each well, resulting approximately 3000 to 4000 cells in each well. The plate was placed in a 37° C. incubator under the condition of 5% CO2 for cell culture, and the drug was added when the cells adhered to the wall.
(4) Drug dilution. The concentration gradient was set as: 0 μM, 10 μM, 50 μM, 100 μM, and 200 μM, with 3 duplicates for each concentration. In addition, blank control wells containing only culture medium and drug without cells were also set.
(5) The plate was incubated in the incubator for 24 h, 48 h and 72 h, respectively. After reaching the set time point, the 96-well plate was taken out from the incubator, and 10 μl of CCK-8 reagent was added to each well, taking care to avoid bubbles. The plate was shaked to mix evenly, and put back into the incubator to culture for another 2 hours.
(6) To detect the absorbance, the 96-well plate was placed in a […], and the absorbance value (OD value) at 450 nm was detected. The data was recorded. Cell viability=(OD value of the assay well−OD value of the blank control well)/(OD value of the solvent control well−OD value of the blank control well)×100%.
(7) The data was imported into GraphPad Prism5 for plotting. The IC50 values were calculated, and the curves were drawn.

ICR mice = assay: Example 6: repeated gavage administration toxicity for 2 weeks; assay type: in vivo
Source text: The compound of formula (I) was gavagely administered continuously to ICR mice for 14 days, to evaluate the nature, degree, and time-effect relationship of the toxic reactions that the compound of formula (I) may cause, and to provide reference information for the subsequent research.
Preparation of the administration formulation of the test sample in each dosage group: The preparation of the test sample was the same as that in Example 5. When the test sample was used, a final volume mark was marked on a container, and a required amount of the test sample was weighed (weighing weight of the test sample=theoretical dosage/conversion factor) into a container. An appropriate amount of solvent was firstly added, and the mixture was stirred and mixed thoroughly, and sonicated if necessary. The solvent was further added to the final volume mark to dilute and mix evenly, to give a visually uniform formulation, which was verified by the methodology. […] The administration formulation of the test sample with a concentration range of 0.01 mg/mL to 60 mg/mL was stable within 8 days when being stored airtightly at 2° C. to 8
Route of Administration: Oral Gavage
Administered once a day; while maintaining the same administration period every day.
Administered continuously for 14 days
The dosage was calculated based on the latest animal body weight.
The administration formulation of the test sample was stirred at room temperature for at least 10 minutes, and suspended uniformly with visual inspection before the administration. The administration formulation of the test sample was required to be continually stirred during the administration.
Observation indicators: observation of general physical signs, detailed clinical observation, body weight, and food intake were included.

NCI-H460 cells [2] = assay: Flow cytometry for apoptosis detection (Annexin V-FITC/PI), NCI-H460; assay type: cell-based, human; conditions: 72 h
Method: (1) Cells were inoculated in a 6-well plate. When the cell growth density was appropriate, four concentrations (0 μM, 10 μM, 30 μM, and 90 μM) of the compound of formula (I) were added, and placed in an incubator at 37° C. with 5% CO2 to continue culturing for 72 hours.
(2) After reaching the designated time point, the cell culture plate was taken out from the incubator, and placed in a biological safety cabinet. A 4 ml centrifuge tube was taken and marked. The supernatant in the 6-well plate was pipetted out and added to the corresponding 4 ml centrifuge tube. The cells were gently washed with PBS, and the PBS was added to the corresponding centrifuge tube. An appropriate amount of trypsin was added to each well to digest the cells. When the cells were digested to a moderate degree, the liquid in the centrifuge tube was added to the corresponding well. The cells were gently pipetted with a pipette to disperse the cells, and was pipetted back into the original centrifuge tube. The tube was immediately centrifuged at 1500 rpm for 5 minutes. Then, the supernatant was discarded and the precipitate was retained.
(3) 2 ml of PBS was added to the centrifuge tube, which was centrifuged again at 1000 rpm for 5 minutes. The supernatant was discarded. This step was repeated again.
(4) The cells were suspended with 1× Binding buffer, and the cell concentration was adjusted to approximately 1×10^6 cells/ml. 100 μl of cell suspension was added to the flow cytometry tube, and 5 μl of PI and 5 μl of Annexin V-FITC were added to each tube. The cells were gently vortexed, and incubated at room temperature in dark for 15 min.
(5) 400 μl of 1× Binding buffer was further added to each tube, and the detection was performed on the flow cytometer (the detection was in need to be completed within 1 hour).
We used AnnexinV-FITC and PI double staining method for apoptosis staining. FL1 channel was selected for FITC, and FL2 channel was selected for PI. Flow cytometry analysis was used to detect cell apoptosis. Q1, Q2, Q3, and Q4 represented dead cells, late apoptotic cells, early apoptotic cells, and normal cells, respectively (FIG. 7). After treating A549 and NCI-H460 cells with the compound of formula (I) at different concentrations (0 μM, 10 μM, 30 μM, and 90 μM) for 72 h, the flow cytometry results are as follows. Table 1 and Table 2 show the proportions of dead cells, late apoptotic cells, early apoptotic cells, and normal cells after treating the A549 and NCI-H460 cells with different concentrations of the compound of formula (I), respectively.

[3] = 100 mg/kg dosage group, surviving animals

Q: Which IC50 (NCI-H460 cells [1]; 24 h) does the source give for `COC1=C(OC)C(=O)C(CCCCCCCCCCOC(=O)Cc2c(C)n(C(=O)c3ccc(Cl)cc3)c3ccc(OC)cc23)=C(C)C1=O` [compound of formula (I)] here?
A: 125.3 ± 1.01 µM

Q: And the IC50 (NCI-H460 cells [1]; 48 h)?
A: 66.4 ± 0.87 µM

Q: And the IC50 (NCI-H460 cells [1]; 72 h)?
A: 48.5 ± 1.12 µM

Q: And the abnormal reactions (ICR mice; 25 mg/kg dosage group)?
A: No abnormal reactions

Q: And the body weight (ICR mice; 25 mg/kg dosage group)?
A: increased normally

Q: And the animals found dead (ICR mice; 25 mg/kg dosage group, 20 animals per group, gavage once a day, 14 days)?
A: No animal was found dead

Q: And the abnormal reactions (ICR mice; 50 mg/kg dosage group)?
A: No abnormal reactions

Q: And the body weight (ICR mice; 50 mg/kg dosage group)?
A: increased normally

Q: What about the animals found dead (ICR mice; 50 mg/kg dosage group, 20 animals per group, gavage once a day, 14 days) of the same molecule?
A: No animal was found dead

Q: And the abnormal reactions (ICR mice; [3])?
A: No abnormal reactions

Q: And the body weight (ICR mice; [3])?
A: increased normally

Q: And the animals found dead (ICR mice; 100 mg/kg dosage group, 20 animals per group, gavage once a day, 14 days)?
A: 3

Q: What about the animals found dead (ICR mice; 300 mg/kg dosage group, 20 animals per group, gavage once a day, 14 days) of the same molecule?
A: 10

Q: And the animals found dead (ICR mice; 1000 mg/kg dosage group, 20 animals per group, gavage once a day)?
A: 13

Q: What about the animals found dead (ICR mice; 1000 mg/kg/d dosage group, from D3 to D6, administration then stopped) of the same molecule?
A: 4

Q: What about the “Q1 Gated % (dead cells)” value (NCI-H460 cells [2]; 10 μM) of the same molecule?
A: 1.72 ± 0.08%

Q: What about the “Q2 Gated % (late apoptotic cells)” value (NCI-H460 cells [2]; 10 μM) of the same molecule?
A: 3.23 ± 2.59%

Q: And the “Q3 Gated % (early apoptotic cells)” value (NCI-H460 cells [2]; 10 μM)?
A: 1.55 ± 1.16%

Q: What about the “Q4 Gated % (normal cells)” value (NCI-H460 cells [2]; 10 μM) of the same molecule?
A: 93.5 ± 3.82%

Q: And the “percentage of apoptosis (total apoptosis)” value (from here on “percentage of apoptosis”) (NCI-H460 cells [2]; 10 μM)?
A: 4.78 ± 3.75

Q: What about the “Q1 Gated % (dead cells)” value (NCI-H460 cells [2]; 30 μM) of the same molecule?
A: 1.75 ± 0.45%

Q: What about the “Q2 Gated % (late apoptotic cells)” value (NCI-H460 cells [2]; 30 μM) of the same molecule?
A: 4.79 ± 0.37%

Q: And the “Q3 Gated % (early apoptotic cells)” value (NCI-H460 cells [2]; 30 μM)?
A: 5.01 ± 1.70%

Q: And the “Q4 Gated % (normal cells)” value (NCI-H460 cells [2]; 30 μM)?
A: 88.45 ± 2.47%

Q: And the “percentage of apoptosis” value (NCI-H460 cells [2]; 30 μM)?
A: 9.8 ± 2.06

Q: What about the “Q1 Gated % (dead cells)” value (NCI-H460 cells [2]; 90 μM) of the same molecule?
A: 0.55 ± 0.04%

Q: And the “Q2 Gated % (late apoptotic cells)” value (NCI-H460 cells [2]; 90 μM)?
A: 9.32 ± 0.35%

Q: What about the “Q3 Gated % (early apoptotic cells)” value (NCI-H460 cells [2]; 90 μM) of the same molecule?
A: 38.35 ± 2.33%

Q: What about the “Q4 Gated % (normal cells)” value (NCI-H460 cells [2]; 90 μM) of the same molecule?
A: 51.85 ± 2.05%

Q: And the “percentage of apoptosis” value (NCI-H460 cells [2]; 90 μM)?
A: 47.67 ± 1.99
